Our source for the IC50 and inhibition values is ChEMBL document CHEMBL1137685, “A three-step synthesis from rebeccamycin of an efficient checkpoint kinase 1 inhibitor” (Eur J Med Chem, 2009).

SMILES strings stand for the structures.

For test [1], the target named is T1, Serine/threonine-protein kinase Chk1 (Homo sapiens, UniProt O14757).
T1 sequence (O14757 whole entry): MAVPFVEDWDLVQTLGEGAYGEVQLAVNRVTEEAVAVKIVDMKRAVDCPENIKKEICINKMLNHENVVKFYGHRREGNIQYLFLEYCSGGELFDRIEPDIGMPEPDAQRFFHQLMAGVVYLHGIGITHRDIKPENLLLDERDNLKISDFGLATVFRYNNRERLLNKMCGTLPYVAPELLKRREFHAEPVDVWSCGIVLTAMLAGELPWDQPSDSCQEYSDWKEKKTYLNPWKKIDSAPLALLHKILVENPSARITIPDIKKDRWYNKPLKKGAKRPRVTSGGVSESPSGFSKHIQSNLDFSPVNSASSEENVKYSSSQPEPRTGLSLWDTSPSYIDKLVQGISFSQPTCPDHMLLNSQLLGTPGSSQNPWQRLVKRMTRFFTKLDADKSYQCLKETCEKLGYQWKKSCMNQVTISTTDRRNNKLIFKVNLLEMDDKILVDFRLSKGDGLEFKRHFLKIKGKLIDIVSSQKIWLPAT
The experiment in a line: Inhibition of GST-tagged human full-length CHK1 expressed in Sf9 cells.

For test [2], the target named is Proto-oncogene tyrosine-protein kinase Src (Homo sapiens) (UniProt P12931). The experiment in a line: Inhibition of Src at 1 uM.
Test [3] concerns the target T2, Serine/threonine-protein kinase Chk1 (Homo sapiens) (UniProt O14757).
T2 sequence (whole entry): T1 sequence (O14757 whole entry)
As to conditions: Sf9, 0.1 uM.
Description: Inhibition of GST-tagged human full-length CHK1 expressed in Sf9 cells at 0.1 uM

Chain of Proto-oncogene tyrosine-protein kinase Src (Homo sapiens) (P12931 2-536 limits assumed): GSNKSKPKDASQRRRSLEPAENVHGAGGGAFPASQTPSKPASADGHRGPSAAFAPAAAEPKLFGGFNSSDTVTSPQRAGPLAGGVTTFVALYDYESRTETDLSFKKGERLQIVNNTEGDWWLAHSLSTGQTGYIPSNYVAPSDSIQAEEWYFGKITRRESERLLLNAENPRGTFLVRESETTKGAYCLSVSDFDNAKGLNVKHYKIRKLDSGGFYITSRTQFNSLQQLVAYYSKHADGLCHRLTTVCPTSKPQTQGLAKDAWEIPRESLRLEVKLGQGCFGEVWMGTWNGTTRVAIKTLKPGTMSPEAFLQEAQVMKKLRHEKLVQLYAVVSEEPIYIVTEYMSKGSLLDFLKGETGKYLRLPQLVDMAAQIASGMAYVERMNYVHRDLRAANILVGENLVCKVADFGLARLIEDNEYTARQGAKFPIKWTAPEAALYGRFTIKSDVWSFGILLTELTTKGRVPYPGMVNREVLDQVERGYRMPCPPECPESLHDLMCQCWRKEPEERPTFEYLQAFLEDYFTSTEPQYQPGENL

As for `CO[C@H]1[C@H](O)[C@H]2[C@@H](O[C@@H]1CN)n1c3ccccc3c3c4c(c5c6ccccc6n2c5c31)C(=O)NC4=O`, 2.8 nM corresponded to half-maximal inhibition in test [1] (IC50). For the same compound, the inhibition (commonly the drop in the measured response relative to a control, in per cent) in test [2] was found to be 35%; in test [3] it was 90%.
